From patent US20210196598A1, “Specific Co-Aggregation Inhibition by Arginine” (priority 2018, published 2021)

Columns and labels:
[1] = tested on: co-aggregates of S. gordonii (commensal) and A. naeslundii (commensal); test: FlowCam coaggregation, commensal:commensal pair S. gordonii and A. naeslundii; format: cell-based, Streptococcus gordonii and Actinomyces naeslundii
Description: (§1) Coaggregation was studied using FlowCam® technology (Fluid Imaging Technologies, ME, USA). S. gordonii DL1, A. oris MG1, P. gingivalis W83, and F. nucleatum ATCC 25586 were harvested from batch cultures and washed once in coaggregation buffer by centrifuging for 10 mins at 3,000 g. After centrifugation, the pellets were re-suspended in coaggregation buffer and adjusted to an optical density of 1.0 (±0.1) at 600 nm. The cell suspensions were then subject to a 5-fold dilution in coaggregation buffer. Each pair was then loaded onto the FlowCam™ device and allowed to sit for one minute. The pairs were subsequently pumped through the device until they reached the flow cell. Data collection was initiated once the Olympus UPlanFLN 10X/0.30 objective was focused on the flowing particles. The FlowCam™ was run for 45 seconds at a flow rate of 0.3 ml/min and images were acquired at 10 frames per second. Flash duration was set to 8 μSec and the particle sizes were measured using area based diameter (ABD) with a particle filter set to detect between 5 and 10000 μm. The same procedure was tested for each pair while suspended in coaggregation buffer supplemented with various concentrations of arginine or lysine.
(§2) The following three pairs of co-aggregates were co-cultured and treated with either buffer (untreated; control) 86 mM arginine or 100 mM arginine:
1) Commensal oral bacteria Streptococcus gordonii and Actinomyces naeslundii,
(§3) The reduction in aggregate sizes was greater in each pair of commensal/pathogenic bacteria, i.e. the co-aggregates of A. naeslundii (commensal) and P. gingivalis (pathogenic) and the co-aggregates of S. gordonii (commensal) and F. nucleatum (pathogenic) compared to the commensal/commensal co-aggregates of S. gordonii (commensal) and A. naeslundii (commensal).
(§4) In FIG. 2, the data from the treated co-aggregates was normalized against untreated co-aggregates. FIG. 2 reflects a selective action of arginine against specific co-aggregates. […]

[2] = tested on: co-aggregates of A. naeslundii (commensal) and P. gingivalis (pathogenic); test: FlowCam coaggregation, commensal:pathogenic pair A. naeslundii and P. gingivalis; format: cell-based, Actinomyces naeslundii and Porphyromonas gingivalis
Description: as §1, §2
2) Commensal oral bacterium A. naeslundii and pathogenic bacterium Porphyromonas gingivalis,
as §3, §4

[3] = tested on: co-aggregates of S. gordonii (commensal) and F. nucleatum (pathogenic); test: FlowCam coaggregation, commensal:pathogenic pair S. gordonii and F. nucleatum; format: cell-based, Streptococcus gordonii and Fusobacterium nucleatum
Description: as §1, §2
3) Commensal oral bacterium S. gordonii and pathogenic bacterium Fusobacterium nucleatum.
as §3, §4

[4] = tested on: S. gordonii and A. oris co-aggregate pair; test: Visual Coaggregation Score, S. gordonii + A. oris; format: cell-based; conditions: for Visual Coaggregation Score (0-4): post-treatment
Description: (§5) The following six pairs of co-aggregates were co-cultured and treated with either 86 mM arginine, 400 mM arginine, 86 mM lysine or 400 mM lysine:
1) Commensal oral bacteria S. gordonii and A. oris;
(§6) Bacterial aggregation was scored visually using a Visual Coaggregation Score (0-4) scoring system.

[5] = tested on: S. gordonii and V. atypica co-aggregate pair; test: Visual Coaggregation Score, S. gordonii + V. atypica; format: cell-based; conditions: post-treatment
Description: as §5
2) Commensal oral bacterium S. gordonii and pathogenic oral bacterium V. atypica;
as §6

[6] = tested on: S. gordonii and F. nucleatum co-aggregate pair; test: Visual Coaggregation Score, S. gordonii + F. nucleatum; format: cell-based; conditions: post-treatment
Description: as §5
3) Commensal oral bacterium S. gordonii and pathogenic oral bacterium F. nucleatum;
as §6

[7] = tested on: A. oris and V. atypica co-aggregate pair; test: Visual Coaggregation Score, A. oris + V. atypica; format: cell-based; conditions: post-treatment
Description: as §5
4) Commensal oral bacterium A. oris and pathogenic oral bacterium V. atypica;
as §6

[8] = tested on: A. oris and F. nucleatum co-aggregate pair; test: Visual Coaggregation Score, A. oris + F. nucleatum; format: cell-based; conditions: post-treatment
Description: as §5
5) Commensal oral bacterium A. oris and pathogenic oral bacterium F. nucleatum; and
as §6

[9] = tested on: A. oris and P. gingivalis co-aggregate pair; test: Visual Coaggregation Score, A. oris + P. gingivalis; format: cell-based; conditions: post-treatment
Description: as §5
6) Commensal oral bacterium A. oris and pathogenic oral bacterium P. gingivalis.
as §6

[10] = tested on: commensal/pathogenic co-aggregate pairs; test: Visual coaggregation scoring, summary in words over the co-aggregate pairs of Table 1; format: cell-based
oral biofilms (plaque) = test: Destabilization of oral biofilms (plaque); format: cell-based; conditions: biofilms treated with the amino acid
[11] = 86 mM and 100 mM arginine, FIG. 1
[12] = Streptococcus gordonii, read-out: inhibition of co-aggregation, normalized against untreated co-aggregates
[13] = Actinomyces naeslundii, read-out: inhibition of co-aggregation, normalized against untreated co-aggregates

| Compound | Visual Coaggregation Score (0-4) ([4]; 86 mM amino acid) | Visual Coaggregation Score (0-4) ([4]; 400 mM amino acid) | Visual Coaggregation Score (0-4) ([5]; 86 mM amino acid) | Visual Coaggregation Score (0-4) ([5]; 400 mM amino acid) | Visual Coaggregation Score (0-4) ([6]; 86 mM amino acid) | Visual Coaggregation Score (0-4) ([6]; 400 mM amino acid) | Visual Coaggregation Score (0-4) ([7]; 86 mM amino acid) | Visual Coaggregation Score (0-4) ([7]; 400 mM amino acid) | Visual Coaggregation Score (0-4) ([8]; 86 mM amino acid) | Visual Coaggregation Score (0-4) ([8]; 400 mM amino acid) | Visual Coaggregation Score (0-4) ([9]; 86 mM amino acid) | Visual Coaggregation Score (0-4) ([9]; 400 mM amino acid) | effect on oral biofilms / total biofilm biomass, in words (oral biofilms (plaque)) | other results |
| --- | --- | --- | --- | --- | --- | --- | --- | --- | --- | --- | --- | --- | --- | --- |
| N=C(N)NCCC[C@H](N)C(=O)O [arginine] | 4 | 3-4 | 2-3 | 2 | 0-1 | 0-1 | 0-1 | 0 | 0-1 | 0 | 0-1 | 0 | reductions in total biofilm biomass | bacterial aggregate sizes (area based diameter), in words [1, 11]: dose dependent reduction; inhibition at 86000 µM [1, 12]: 11%; inhibition at 100000 µM [1, 12]: 14%; bacterial aggregate sizes (area based diameter), in words [2, 11]: dose dependent reduction; inhibition at 86000 µM [2, 13]: 22%; inhibition at 100000 µM [2, 13]: 64%; bacterial aggregate sizes (area based diameter), in words [3, 11]: dose dependent reduction; inhibition at 86000 µM [3, 12]: 25%; inhibition at 100000 µM [3, 12]: 37%; inhibitory effect on aggregation, in words ([4]; 86 mM and 100 mM arginine (so in the source), commensal/commensal pair): none to little inhibitory effect; inhibition of aggregation, in words ([10]; 86 mM and 100 mM arginine (so in the source), each of the five commensal/pathogenic pairs): selectively inhibited aggregation |
| NCCCC[C@H](N)C(=O)O [lysine, reference compound] | 4 | 4 | 4 | 3 | 3-4 | 3 | 3 | 0-1 | 3-4 | 2-3 | 1-2 | 0-1 | No similar disruptive effects | anti-coadhesion functionality, in words ([10]; lysine in any of the corresponding pairs): Little to no anti-coadhesion functionality |
